Laboratory results published in paper PMC9695599, “N-Terminally Lipidated Sialorphin Analogs—Synthesis, Molecular Modeling, In Vitro Effect on Enkephalins Degradation by NEP and Treatment of Intestinal Inflammation in Mice” (International Journal of Molecular Sciences, 2022).
Residues, ends and D or L forms follow the SMILES beside them.

How the values were obtained:
[1] = target: neutral endopeptidase (NEP) (Homo sapiens, UniProt P08473); test: Degradation of Met-enkephalin by NEP alone and in the presence of inhibitors; conditions: for 1000 × k, degradation rate of Met-enkephalin incubated with NEP in the presence of inhibitor / t1/2, half-life of Met-enkephalin incubated with NEP in the presence of inhibitor: Met-enkephalin 0.0413 mM, inhibitor 0.156 mM, NEP 5.687 nM, Tris–HCl 50 mM pH 7.4, 37 °C, 0, 30, 60, 90, 120 min, RP-HPLC, mean ± SEM, triplicates
Chain of neutral endopeptidase (NEP) (P08473 whole entry, species assumed): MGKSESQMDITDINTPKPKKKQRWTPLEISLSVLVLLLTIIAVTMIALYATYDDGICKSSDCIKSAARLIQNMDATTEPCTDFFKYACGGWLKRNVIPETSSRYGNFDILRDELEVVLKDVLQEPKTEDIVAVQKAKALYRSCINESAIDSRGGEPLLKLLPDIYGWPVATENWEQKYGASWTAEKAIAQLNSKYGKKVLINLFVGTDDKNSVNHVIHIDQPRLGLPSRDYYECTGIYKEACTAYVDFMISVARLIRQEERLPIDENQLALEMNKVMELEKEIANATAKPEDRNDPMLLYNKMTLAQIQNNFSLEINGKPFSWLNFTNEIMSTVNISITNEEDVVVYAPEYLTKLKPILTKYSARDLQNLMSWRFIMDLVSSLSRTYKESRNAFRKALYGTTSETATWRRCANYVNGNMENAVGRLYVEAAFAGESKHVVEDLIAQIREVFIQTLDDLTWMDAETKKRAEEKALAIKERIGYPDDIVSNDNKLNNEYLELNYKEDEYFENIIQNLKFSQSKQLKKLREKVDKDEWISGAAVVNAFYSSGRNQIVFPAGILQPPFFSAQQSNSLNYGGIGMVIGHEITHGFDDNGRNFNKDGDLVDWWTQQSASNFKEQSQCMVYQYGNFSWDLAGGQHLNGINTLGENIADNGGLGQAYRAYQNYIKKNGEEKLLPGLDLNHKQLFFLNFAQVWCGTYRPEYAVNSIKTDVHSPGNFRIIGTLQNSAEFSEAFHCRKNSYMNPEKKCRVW
Procedure: Determination of Met-enkephalin degradation rates was performed, as described previously. Purified enzyme NEP was purchased from Merck (Warsaw, Poland). Solutions of Met-enkephalin, NEP, and inhibitors were prepared by dissolving them in a Tris–HCl buffer (50 mM, pH 7.4). In investigated samples, the concentrations of Met-enkephalin, inhibitors, and NEP were, respectively, 0.0413 mM, 0.156 mM, and 5.687 nM. The samples consisting of NEP, Met-enkephalin, and the inhibitor were incubated over 0, 30, 60, 90, and 120 min at 37 °C in a final volume of 300 μL. The reaction was stopped with a 1 M aqueous HCl solution. In the next steps, the samples were centrifuged and the supernatants were filtered and analyzed by RP-HPLC. All measurements were performed in triplicates.

[2] = Stability of peptides in human plasma; type: in vitro ADME; conditions: 37 °C, 200 µL peptide solution (1 mg/mL in PBS pH 7.42) + 50 µL human plasma, ethanol deproteinization, RP-HPLC peak area vs 0 h, at least triplicate; for Stability in human plasma relative to heterodimer of sialorphin and spinorphin, after 4 h: 4 h incubation; for Level of remaining peptide in human plasma relative to heterodimer of sialorphin and spinorphin, after 24 h: 24 h incubation
Procedure: Compounds VII and VIII were the strongest inhibitors of NEP in vitro and were thus included in stability assays. Peptides were incubated in the human plasma at 37 °C, and their degradation was analyzed by RP HPLC. The stability of peptides VII–VIII was compared to that of a heterodimer of sialorphin and spinorphin and not sialorphin alone. In previously described stability assays of sialorphin alone, the 48% TFA solution was used to precipitate proteins before HPLC analysis. In the case of the peptides VII and VIII, we had to use ethanol instead of the TFA solution. This change was required by the fact that in the latter solution, an emergence of a degradation product that was characterized by identical retention time on HPLC as that of peptides VII and VIII occurred. Consequently, a different reference was used (heterodimer of sialorphin and spinorphin instead of sialorphin).
Plasma-stability assays were performed by applying procedure described by Sobocińska et al.. Each peptide solution was prepared by dissolving 1 mg of a peptide in 1 mL of PBS buffer (pH 7.42). The samples containing the peptide (200 µL) and freshly […] plasma (50 µL) were incubated at 37 °C. The samples were analyzed after 0, 2, 4, and 24 h. At each time interval 40 μL of the mixture was taken and deproteinized by addition of a ethanol (120 µL). The aliquots were centrifuged at 14,500 rpm for 5 min. The supernatants were filtered over Millipore Millex-GV syringe filters (Merck Life Science, Poznan, Poland) and analyzed with RP-HPLC on a Phenomenex Gemini-NX C18 5 µm column (4.6 mm × 150 mm) using the solvent system of 0.1% TFA in water (A) and 0.1% TFA in acetonitrile (B) and linear gradients of 20–80% (B) over 20 min, at a flow rate of 1.5 mL/min. To assess the stability at each time interval, the area of the peptide peak from the chromatogram was calculated and expressed as the percentage of the area of the peak recorded just after mixing a peptide with plasma (0-hour). The assay was performed at least in triplicate for each peptide.

[3] = test system: DSS-induced colitis in mice; test: DSS-induced mouse model of colitis; type: in vivo, mouse (male BALB/C); conditions: for Effect on microscopic damage score / colon architecture (in words): DSS-induced colitis, peptide 1 mg/kg i.p. twice daily day 3-6, hematoxylin-eosin stained distal colon sections, day 7
Procedure: Male BALB/C mice obtained from University of Lodz, Poland, weighing 22–25 g (6–8 weeks of age), were used. The mice were kept at a constant temperature (22–23 °C) and maintained under a 12 h light/dark cycle with constant access to laboratory chow and tap water. All animal protocols were approved by the Medical University of Lodz Animal Care Committee (Protocol 2/ŁB 123/2019 and 17/ŁB 132/2019) and complied with Directive 2010/63/EU of the European Parliament and of the Council of 22 September 2010. All efforts were made to minimize animal suffering and to reduce the number of animals used.
Colonic inflammation was induced as described before. From day 0 to day 5, mice received DSS: 4% w/v and molecular weight 40,000 (PanReac AppliChem, Darmstadt, Germany) in drinking water. On days 6 and 7, the DSS solution was replaced with tap water. Control animals were given drinking water throughout the whole experiment. Animal body weight was monitored daily. Mice were sacrificed by cervical dislocation on day 7, and colonic damage was evaluated.
Treatment was administered intraperitoneally (i.p.) twice daily from day 3 to day 6 after colitis induction, 100 µL/mouse. Peptides were administered at the dose of 1 mg/kg bw. Control and DSS groups received vehicle alone (100 µL/mouse, i.p.).
On day 7 of the experiment, mice were euthanized. For total macroscopic damage score evaluation, the colon was removed immediately after cervical dislocation and weighed with fecal content. Next, the colon was opened longitudinally, and the feces were removed.
Total macroscopic damage score was calculated based on the stool consistency (0—normal, well-shaped fecal pellets; 3—diarrhea), colon epithelial damage (0–3), and colon length and weight scores, calculated as a loss of each parameter relative to the control group (0 points, ≤5% weight/length loss; 1 point, 5–14% weight/length loss; 2 points, 15–24% weight/length loss; 3 points, 25–35% weight/length loss; and 4 points, ≥35% weight/length loss). […] The presence (score = 1) or absence (score = 0) of fecal blood was also recorded. […]

1000 × k, degradation rate of Met-enkephalin incubated with NEP in the presence of inhibitor [1]	t1/2, half-life of Met-enkephalin incubated with NEP in the presence of inhibitor [1] [min]	Stability in human plasma relative to heterodimer of sialorphin and spinorphin, after 4 h [2] [times]	Level of remaining peptide in human plasma relative to heterodimer of sialorphin and spinorphin, after 24 h [2] [times]	SMILES	half-life at 0.0413 mM ([1]; isolated enzyme neprilysin, pH 7.4) [min]	Effect on microscopic damage score / colon architecture (in words) [3]	Total macroscopic damage score ([3]; DSS 4% w/v in drinking water day 0-5, peptide 1 mg/kg i.p. twice daily day 3-6, evaluated day 7, mean ± SEM, n = 5–10, DSS-only 11.20 ± 0.60, control 0.55 ± 0.18)
0.89 ± 0.10 *** 1/min	724 ± 43	1.4	5.5	CCCCCCCCCCCCCCCCCC(=O)N[C@@H](CCCCN)C(=O)N[C@@H](CCCCN)C(=O)N[C@@H](CCC(N)=O)C(=O)N[C@@H](Cc1c[nH]cn1)C(=O)N[C@@H](CC(N)=O)C(=O)N1CCC[C@H]1C(=O)N[C@@H](CCCNC(=N)N)C(=O)O [VIII] (HELM PEPTIDE1{[CCCCCCCCCCCCCCCCCC(=O)[*:2]].K.K.Q.H.N.P.R}$$$$V2.0)	–	less pronounced	–
3.46 ± 0.40 *** 1/min	199 ± 2	1.4	1.3	CCCCCCCCCCCCCCCC(=O)N[C@@H](CCCCN)C(=O)N[C@@H](CCCCN)C(=O)N[C@@H](CCC(N)=O)C(=O)N[C@@H](Cc1c[nH]cn1)C(=O)N[C@@H](CC(N)=O)C(=O)N1CCC[C@H]1C(=O)N[C@@H](CCCNC(=N)N)C(=O)O [VII] (HELM PEPTIDE1{[CCCCCCCCCCCCCCCC(=O)[*:2]].K.K.Q.H.N.P.R}$$$$V2.0)	–	significantly improved colon architecture	10.20 ± 0.99

More lines, now with the values behind:

SMILES	1000 × k, degradation rate of Met-enkephalin incubated with NEP in the presence of inhibitor [1]	t1/2, half-life of Met-enkephalin incubated with NEP in the presence of inhibitor [1] [min]	Stability in human plasma relative to heterodimer of sialorphin and spinorphin, after 4 h [2] [times]	Level of remaining peptide in human plasma relative to heterodimer of sialorphin and spinorphin, after 24 h [2] [times]	half-life at 0.0413 mM ([1]; isolated enzyme neprilysin, pH 7.4) [min]	Effect on microscopic damage score / colon architecture (in words) [3]	Total macroscopic damage score ([3]; DSS 4% w/v in drinking water day 0-5, peptide 1 mg/kg i.p. twice daily day 3-6, evaluated day 7, mean ± SEM, n = 5–10, DSS-only 11.20 ± 0.60, control 0.55 ± 0.18)
CSCC[C@H](NC(=O)[C@H](Cc1ccccc1)NC(=O)CNC(=O)CNC(=O)[C@@H](N)Cc1ccc(O)cc1)C(=O)O [Met-Enkephalin, Met-enkephalin, reference compound]	–	–	–	–	27 ± 1	–	–
CCCCCCCCCCCCCC(=O)N[C@@H](CCCCN)C(=O)N[C@@H](CCCCN)C(=O)N[C@@H](CCC(N)=O)C(=O)N[C@@H](Cc1c[nH]cn1)C(=O)N[C@@H](CC(N)=O)C(=O)N1CCC[C@H]1C(=O)N[C@@H](CCCNC(=N)N)C(=O)O [VI] (HELM PEPTIDE1{[CCCCCCCCCCCCCC(=O)[*:2]].K.K.Q.H.N.P.R}$$$$V2.0)	20.06 ± 1.34 ** 1/min	35 ± 2	–	–	–	–	–
CCCCCCCCCCCC(=O)N[C@@H](CCCCN)C(=O)N[C@@H](CCCCN)C(=O)N[C@@H](CCC(N)=O)C(=O)N[C@@H](Cc1c[nH]cn1)C(=O)N[C@@H](CC(N)=O)C(=O)N1CCC[C@H]1C(=O)N[C@@H](CCCNC(=N)N)C(=O)O [V] (HELM PEPTIDE1{[CCCCCCCCCCCC(=O)[*:2]].K.K.Q.H.N.P.R}$$$$V2.0)	23.20 ± 0.89 min⁻¹	30 ± 1	–	–	–	–	–
